Experimental data as given in US20220088103A1, “PEANUT STEM AND LEAF EXTRACT AND PREPARATION METHOD AND USE THEREOF” (INSTITUTE OF FOOD SCIENCE AND TECHNOLOGY, CHINESE ACADEMY …, priority 2019, published 2022).

Tested on: sleep of mice
Experiment: Effect on 24-hour sleep of mice (EEG and electromyograph recording)
Type: in vivo, Male Bal b/c mice
Conditions: standard substances dosed according to their identified contents in the extract; intragastric, D1 to D14; FIG. 3
Text: The BAL b/c mice is used as a model in the present invention, and the electrophysiological technology is adopted, wherein electrodes are implanted in the brain of the mice, and the brain wave changes of mice after drug administration is real time 24-hour monitored for 14 days, thereby determining that the functional active substances in the peanut stem and leaf extract provided by the present invention have a significant sleep promoting function.
Experiment of the effect of the peanut stem and leaf extract prepared in Example 1 on sleep of mice
The peanut stem and leaf extract prepared according to the method of Example 1 was used as an experimental drug, and the standard drugs were administered to the mice according to the identified contents of the substances such as naringenin-4,7′-dimethyl ether.
The experiment was divided into a control group, extract groups (three groups of low, medium and high doses), a positive control group and a functional factor group (four functional active substances). Male Bal b/c mice were used, 6 mice for each group.
The mice were anesthetized at abdominal cavity with chloral hydrate (4%) at 0.10 mL/10 g. After the pain reflex disappeared, the mice were fixed on a mouse brain stereotactic adapter, and the hair on the head of the mice was cut off and 75% alcohol was used to disinfect the skin, the skin was cut along the midline of the skull, and the subcutaneous tissue was separated to fully expose the skull. […] The electroencephalo-graph (EEG) electrodes were fixed on the skull with tissue glue and dental cement successively, and the EEG electrode was connected to a screw (fixed in the hole drilled on the skull) to touch the cerebral dura mater by a silver wire to record cortical EEG activity. The two silver wires connected to the myoelectric electrodes were inserted into the muscles on both sides of the neck of the mouse to record the myoelectric activity. The electrode base was then fixed to the skull with tissue glue and dental cement. Mice were injected with penicillin after surgery (measuring 80,000 units/day for three consecutive days). The mice were raised separately in a shielding box with constant temperature, constant humidity, sound insulation and electrostatic shielding function during the recovery period after surgery. The cables for recording EEG and myoelectricity were connected to the electrodes on the head of the mouse on the second day after surgery, and the mice were allowed to adapt for 7 days. […] The EEG and electromyograph of mice that recovered and adapted to the experimental environment began to be recorded from 8:00 in the morning for 24 hours, and this day was recorded as D0. […] The EEG and electromyograph were recorded on the D7 and D14, and the brain tissue was taken after gavage at 8:00 in the morning on D15.

`COc1cc(O)ccc1C(=O)/C=C/c1ccc(O)cc1` [2′-O-methylisoliquiritigenin] was tested. Which “sleep time of mice (24-hour sleep)” value did it give?
Its value is “significantly improve”.

With `COc1cc(/C=C/C(=O)O)ccc1O` [ferulic acid] as the compound, how does the “sleep time of mice (24-hour sleep)” value read?
Its value is “significantly improve”.

For `C=CC(C)(O)CCC=C(C)C` (stereo not shown) [linalool], which “sleep time of mice (24-hour sleep)” value is on record?
The value was “significantly improve”.

`COc1ccc(C2CC(=O)c3c(O)cc(OC)cc3O2)cc1` (stereo not shown) [naringenin-4,7′-dimethyl ether] was tested. Which “sleep time of mice (24-hour sleep)” value did it give?
The value was “significantly improve”.
